Tested on: 935938-334-R-J1-PDC spheroids with HUVEC/MSC, viability
Assay: Anticancer human tumor 935938-334-R-J1-PDC patient-derived small intestine adenocarcinoma cell line growth inhibition [PI3K]
Details: for IC50: curve of first compound; for viability, T/C: stronger effect = lower value
Procedure, shortened: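 Stroma-containing spheroids: tumor line, pooled-donor HUVEC, hMSC. Treatments: targeted agents with PI3K inhibitors. Dosing: clinically relevant, half-log spacing, 10 microM ceiling without known Cmax. Read-out: cell viability.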

[1] = second compound 0.00316 µM, first compound 0.0316 µM
[2] = second compound 0.00316 µM, first compound 0.1 µM
[3] = second compound 0.00316 µM, first compound 0.316 µM
[4] = second compound 0.00316 µM, first compound 1 µM
[5] = second compound 0.00316 µM, first compound 3.16 µM
[6] = second compound 0.00316 µM, first compound 10 µM
[7] = second compound 0.01 µM, first compound 0.0316 µM
[8] = second compound 0.01 µM, first compound 0.1 µM
[9] = second compound 0.01 µM, first compound 0.316 µM
[10] = second compound 0.01 µM, first compound 1 µM
[11] = second compound 0.01 µM, first compound 3.16 µM
[12] = second compound 0.01 µM, first compound 10 µM
[13] = second compound 0.0316 µM, first compound 0.0316 µM
[14] = second compound 0.0316 µM, first compound 0.1 µM
[15] = second compound 0.0316 µM, first compound 0.316 µM
[16] = second compound 0.0316 µM, first compound 1 µM
[17] = second compound 0.0316 µM, first compound 3.16 µM
[18] = second compound 0.0316 µM, first compound 10 µM
[19] = second compound 0.1 µM, first compound 0.0316 µM
[20] = second compound 0.1 µM, first compound 0.1 µM
[21] = second compound 0.1 µM, first compound 0.316 µM
[22] = second compound 0.1 µM, first compound 1 µM
[23] = second compound 0.1 µM, first compound 3.16 µM
[24] = second compound 0.1 µM, first compound 10 µM
[25] = second compound 0.316 µM, first compound 0.0316 µM
[26] = second compound 0.316 µM, first compound 0.1 µM
[27] = second compound 0.316 µM, first compound 0.316 µM
[28] = second compound 0.316 µM, first compound 1 µM
[29] = second compound 0.316 µM, first compound 3.16 µM
[30] = second compound 0.316 µM, first compound 10 µM
[31] = second compound 1 µM, first compound 0.0316 µM
[32] = second compound 1 µM, first compound 0.1 µM
[33] = second compound 1 µM, first compound 0.316 µM
[34] = second compound 1 µM, first compound 1 µM
[35] = second compound 1 µM, first compound 3.16 µM
[36] = second compound 1 µM, first compound 10 µM
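Note: compound exposure lasted seven days before viability was read.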
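Throughout, for viability, T/C: percent of vehicle DMSO treated spheroid viability so 100% = untreated.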

`CC(Cn1ccc(-c2ccc(C#N)c(Cl)c2)n1)NC(=O)c1cc(C(C)O)[nH]n1` (centres undefined) + COc1c(OCCCN2CCOCC2)ccc2c3n(c(=NC(=O)c4cnc(N)nc4)nc12)CCN3 showed an IC50 (second compound 0.00316 µM) greater than 10000 nM, an IC50 (second compound 0.01 µM) greater than 10000 nM and an IC50 (second compound 0.0316 µM) greater than 10000 nM. It also gave an IC50 (second compound 0.1 µM) of 1020 nM, an IC50 (second compound 0.316 µM) of less than 31.6 nM and an IC50 (second compound 1 µM) of less than 31.6 nM. The viability, T/C [1] was 98%, the viability, T/C [2] was 87.8% and the viability, T/C [3] was 84.1%. The viability, T/C [4] was 89.2%, the viability, T/C [5] was 121% and the viability, T/C [6] was 107%. It also gave a viability, T/C [7] of 97.6%, a viability, T/C [8] of 95.2% and a viability, T/C [9] of 88.1%. The viability, T/C [10] was 77.2%, the viability, T/C [11] was 99.4% and the viability, T/C [12] was 78.7%. It also gave a viability, T/C [13] of 75.8%, a viability, T/C [14] of 61.2% and a viability, T/C [15] of 88.5%. It also gave a viability, T/C [16] of 79%, a viability, T/C [17] of 89.1% and a viability, T/C [18] of 67.1%. The viability, T/C [19] was 40.6%, the viability, T/C [20] was 57.2% and the viability, T/C [21] was 54.6%. For the same molecule, the viability, T/C [22] was 49.9%, the viability, T/C [23] was 41.2% and the viability, T/C [24] was 33%. The viability, T/C [25] was 36.6%, the viability, T/C [26] was 35.6% and the viability, T/C [27] was 29.5%. For the same molecule, the viability, T/C [28] was 36%, the viability, T/C [29] was 33.9% and the viability, T/C [30] was 30.8%. The viability, T/C [31] was 35.8%, the viability, T/C [32] was 39% and the viability, T/C [33] was 43.6%. It also gave a viability, T/C [34] of 39.9%, a viability, T/C [35] of 31.4% and a viability, T/C [36] of 28.9%.
In the case of `Cn1nccc1Nc1nccc(-c2ccn(C(CO)c3ccc(Cl)c(F)c3)c(=O)c2)n1` (centres undefined) + COc1c(OCCCN2CCOCC2)ccc2c3n(c(=NC(=O)c4cnc(N)nc4)nc12)CCN3, the IC50 (second compound 0.00316 µM) is reported as 1380 nM, the IC50 (second compound 0.01 µM) is reported as 1500 nM and the IC50 (second compound 0.0316 µM) is reported as 566 nM. For the same molecule, the IC50 (second compound 0.1 µM) was less than 31.6 nM, the IC50 (second compound 0.316 µM) was less than 31.6 nM and the IC50 (second compound 1 µM) was less than 31.6 nM. The viability, T/C [1] was 81.5%, the viability, T/C [2] was 99.5% and the viability, T/C [3] was 54.7%. For the same molecule, the viability, T/C [4] was 58.4%, the viability, T/C [5] was 41.4% and the viability, T/C [6] was 25.2%. The viability, T/C [7] was 85.7%, the viability, T/C [8] was 77.8% and the viability, T/C [9] was 68.9%. The viability, T/C [10] was 55.6%, the viability, T/C [11] was 39.9% and the viability, T/C [12] was 28%. The viability, T/C [13] was 58.8%, the viability, T/C [14] was 76.7% and the viability, T/C [15] was 49.2%. It also gave a viability, T/C [16] of 46.1%, a viability, T/C [17] of 33.5% and a viability, T/C [18] of 28%. It also gave a viability, T/C [19] of 49.4%, a viability, T/C [20] of 39.6% and a viability, T/C [21] of 40.1%. For the same molecule, the viability, T/C [22] was 28%, the viability, T/C [23] was 18.1% and the viability, T/C [24] was 20.6%. For the same molecule, the viability, T/C [25] was 36.4%, the viability, T/C [26] was 32% and the viability, T/C [27] was 22.3%. It also gave a viability, T/C [28] of 22.4%, a viability, T/C [29] of 21.7% and a viability, T/C [30] of 23%. It also gave a viability, T/C [31] of 34.6%, a viability, T/C [32] of 27% and a viability, T/C [33] of 25.1%. It also gave a viability, T/C [34] of 23.9%, a viability, T/C [35] of 19.5% and a viability, T/C [36] of 17.9%.

— PubChem BioAssay AID1963966 (Molecular Pharmacology Branch, DTP, NCI, 2024)
